In the NIST ThermoML archive (doi:10.1016/j.fluid.2011.02.002):
Where “and” joins values, the source holds several entries; their conditions need not be identical. Equal values may be shown once.

Columns and labels:
[1] = Closed cell (Static) method
[2] = molar heat capacity at constant pressure; settings: 101.33 kPa, Liquid, Small sample (50 mg) DSC

C[S+](C)[O-] [dimethyl sulfoxide]
[1]
Settings	vapor or sublimation pressure
273.65 K, Crystal	0.00789 kPa
275.65 K, Crystal	0.00979 kPa
278.15 K, Crystal	0.01278 kPa and 0.01277 kPa and 0.01275 kPa
280.64 K, Crystal	0.01655 kPa
280.65 K, Crystal	0.01656 kPa
283.15 K, Crystal	0.02138 kPa and 0.02137 kPa
285.65 K, Crystal	0.02752 kPa and 0.02751 kPa
288.15 K, Crystal	0.03531 kPa and 0.03525 kPa
290.65 K, Crystal	0.04487 kPa and 0.04486 kPa
293.15 K, Liquid	0.05512 kPa and 0.05509 kPa and 0.0551 kPa
295.65 K, Liquid	0.06631 kPa and 0.06632 kPa and 0.06633 kPa
298.15 K, Liquid	0.07965 kPa and 0.07966 kPa and 0.07964 kPa
300.65 K, Liquid	0.09517 kPa and 0.09518 kPa
303.16 K, Liquid	0.1134 kPa
305.66 K, Liquid	0.1346 kPa
308.16 K, Liquid	0.1592 kPa

O=S1(=O)CCCC1 [sulfolane]
[1], Liquid
Settings	vapor or sublimation pressure
302.16 K	0.00146 kPa
303.17 K	0.00155 kPa and 0.00158 kPa
305.17 K	0.00188 kPa and 0.00187 kPa
306.17 K	0.00203 kPa
307.17 K	0.00223 kPa and 0.00224 kPa and 0.0022 kPa
308.17 K	0.00241 kPa and 0.0024 kPa

[2]
Settings	molar heat capacity at constant pressure
304.04 K	179.5 J/K/mol and 179.9 J/K/mol
309.14 K	181.3 J/K/mol
309.15 K	181.6 J/K/mol
314.25 K	182.6 J/K/mol and 183.8 J/K/mol
319.35 K	184.7 J/K/mol and 184.5 J/K/mol
324.46 K	185.3 J/K/mol and 184.4 J/K/mol
329.56 K	187.4 J/K/mol and 186.6 J/K/mol
334.66 K	188.7 J/K/mol
334.67 K	187.9 J/K/mol
339.77 K	189.7 J/K/mol and 188.5 J/K/mol
344.88 K	190.2 J/K/mol
349.98 K	192.5 J/K/mol and 192 J/K/mol
355.09 K	193.4 J/K/mol and 192.3 J/K/mol
